# Non-standard residues stand in square brackets, D forms with d. Residues, ends and D or L forms follow the SMILES beside them. Gly(Nα-4-Cl-benzyl) = O=C(O)CNCc1ccc(Cl)cc1; N(4-F-Bzl)Gly = O=C(O)CNCc1ccc(F)cc1; NBzl(4-I)Gly = O=C(O)CNCc1ccc(I)cc1; Nphe = O=C(O)CNCc1ccccc1; Nlys = NCCCCNCC(=O)O
# What was measured:
# [1] = tested on: P. aeruginosa PA01 (H103); format: cell-based, Pseudomonas aeruginosa; conditions: H103, 18 h
# Procedure: (§1) Bacterial growth inhibition was determined by using broth microdilution according to the Clinical Laboratory Standards Institute[43]. The antibacterial activity of peptoids was tested against S. aureus ATCC 25923, ATCC29213, and methicillin resistant S. aureus USA 300, methicillin resistant S. epidermidis ATCC 51625, a biofilm producing methicillin resistant S. epidermidis ET-024[44], P. aeruginosa Pa01 (H103), and E. coli ATCC 25922. Bacteria, grown on agar plates for 18 h at 37 °C, were diluted to ∼1 × 10^8 CFU/mL in Mueller‐Hinton Broth II (MHB II). Twofold serial dilutions of peptoids in MHB II were inoculated with bacteria to achieve a final concentration of 5 × 10^5 CFU/mL in polypropylene 96 U‐well microtiter plates (Corning 3,897; ThermoFisher Scientific, Roskilde), followed by incubation at 37 °C in ambient air for 18 h. The MIC values were determined as the lowest concentration showing no visible bacterial growth. Experiments were performed twice (in technical triplicates) on 2 different days.
# [2] = tested on: selected bacterial strains (S. aureus, S. epidermidis, E. coli, P. aeruginosa); format: cell-based
# Procedure: All 36 peptoids were tested against seven bacterial strains: five Gram-positive (Staphylococcus aureus ATCC 25923 and ATCC 29213, methicillin-resistant Staphylococcus aureus USA 300, methicillin-resistant Staphylococcus epidermidis ET-024 and ATCC 51625) and two Gram-negative (Escherichia coli ATCC 25922, Pseudomonas aeruginosa PA01) (Table 1).
# as §1
# [3] = tested on: E. coli ATCC 25922; format: cell-based, Escherichia coli; conditions: ATCC 25922, 18 h
# Procedure: as §1
# [4] = tested on: Methicillin-resistant S. aureus USA 300; format: cell-based, Staphylococcus aureus; conditions: USA 300, 18 h
# Procedure: as §1
# [5] = tested on: S. aureus ATCC 25923; format: cell-based, Staphylococcus aureus; conditions: for Minimal inhibitory concentration SA^a: ATCC 25923, 18 h
# Procedure: as §1
# [6] = tested on: S. aureus ATCC 29213; format: cell-based, Staphylococcus aureus; conditions: ATCC 29213, 18 h
# Procedure: as §1
# [7] = tested on: Methicillin-resistant S. epidermidis ET-024; format: cell-based, Staphylococcus epidermidis; conditions: for Minimal inhibitory concentration MRSE^d: Methicillin-resistant ET-024, 18 h
# Procedure: as §1
# [8] = tested on: Methicillin-resistant S. epidermidis ATCC 51625; format: cell-based, Staphylococcus epidermidis; conditions: for MIC against MRSE: text b15, strain not named; for Minimal inhibitory concentration MRSE^e: ATCC 51625, 18 h
# Procedure: as §1
# [9] = Critical aggregation concentration from SAXS fit analysis; format: physicochemical
# Procedure: SAXS experiments of the 10-mer peptoids were performed at the automated BM29 bioSAXS beamline at the European Synchrotron Radiation Facility (ESRF) in Grenoble, France[45]. The data was obtained using an energy of 12.5 keV and a detector distance of 2.87 m, covering a q range ( q=4πsin(θ/2)/λ ), where θ is the scattering angle and λ is the X-ray wavelength) of about 0.0047 to 0.5 Å^−1. The data set was calibrated to an absolute intensity scale using water as a primary standard. 40 µL samples were run through a capillary using the flow mode of the automated sample changer. SAXS data was collected in ten successive frames of 0.5 s each to monitor radiation damage and the data reduction was done using the standard tool at BM29[47].
# The SAXS experiments on the fully iodinated 6-, 8-, and 12-mers to determine the CAC of the compounds were performed using a Bruker NANOSTAR equipped with a microfocus X-ray source (IμS Cu, Incoatec, Germany) and a VÅNTEC-2000 detector. Raw scattering data was calibrated to absolute intensity scale using water as a primary standard and radially averaged in order to obtain the 1D scattered intensity profile as a function of the scattering vector, with a wavelength of 1.54 Å.
# The modelling fit analysis of the scattering data is explained in detail in the supplementary information.
SMILES,critical aggregation concentration (CAC) [9] [mg/mL],Minimal inhibitory concentration PA^g [1] [µg/mL],"antimicrobial potency against the selected bacterial strains, in words [2]",Minimal inhibitory concentration EC^f [3] [µg/mL],Minimal inhibitory concentration MRSA^c [4] [µg/mL],Minimal inhibitory concentration SA^a [5] [µg/mL],Minimal inhibitory concentration SA^b [6] [µg/mL],Minimal inhibitory concentration MRSE^d [7] [µg/mL],MIC against MRSE ([8]; values match ATCC 51625) [µg/mL],fold increase of activity against S. aureus ([5]; versus non-halogenated control of same length) [fold],"fold increase of activity against MRSE ([8]; versus non-halogenated control 1, values match ATCC 51625) [fold]",Minimal inhibitory concentration MRSE^e [8] [µg/mL],"fold increase of activity against MRSE ([7]; versus non-halogenated control of same length, values match ET-024) [fold]"
NCCCCNCC(=O)N(CC(=O)N(CCCCN)CC(=O)N(CC(=O)N(CCCCN)CC(=O)N(CC(N)=O)Cc1ccccc1)Cc1ccccc1)Cc1ccccc1 [Compound 1] (H-[Nlys][Nphe][Nlys][Nphe][Nlys][Nphe]-NH2),–,> 512,inactive,> 512,> 512,> 512,> 512,512,512,–,–,–,–
NCCCCNCC(=O)N(CC(=O)N(CCCCN)CC(=O)N(CC(=O)N(CCCCN)CC(=O)N(CC(N)=O)Cc1ccc(I)cc1)Cc1ccc(I)cc1)Cc1ccc(I)cc1 [Compound 5] (H-[Nlys][NBzl(4-I)Gly][Nlys][NBzl(4-I)Gly][Nlys][NBzl(4-I)Gly]-NH2),2.8,> 512,–,64,4,8,4,4,2,> 64,256,–,–
NCCCCNCC(=O)N(CC(=O)N(CCCCN)CC(=O)N(CC(=O)N(CCCCN)CC(=O)N(CC(=O)N(CCCCN)CC(=O)N(CC(N)=O)Cc1ccccc1)Cc1ccccc1)Cc1ccccc1)Cc1ccccc1 [Compound 10] (H-[Nlys][Nphe][Nlys][Nphe][Nlys][Nphe][Nlys][Nphe]-NH2),–,> 512,inactive,256,> 512,> 512,> 512,256,–,–,–,256,–
NCCCCNCC(=O)N(CC(=O)N(CCCCN)CC(=O)N(CC(=O)N(CCCCN)CC(=O)N(CC(=O)N(CCCCN)CC(=O)N(CC(N)=O)Cc1ccc(I)cc1)Cc1ccc(I)cc1)Cc1ccc(I)cc1)Cc1ccc(I)cc1 [Compound 14] (H-[Nlys][NBzl(4-I)Gly][Nlys][NBzl(4-I)Gly][Nlys][NBzl(4-I)Gly][Nlys][NBzl(4-I)Gly]-NH2),1.4,> 512,–,64,4,8,16,2,–,–,–,4,128
NCCCCNCC(=O)N(CC(=O)N(CCCCN)CC(=O)N(CC(=O)N(CCCCN)CC(=O)N(CC(=O)N(CCCCN)CC(=O)N(CC(=O)N(CCCCN)CC(=O)N(CC(N)=O)Cc1ccc(F)cc1)Cc1ccc(F)cc1)Cc1ccc(F)cc1)Cc1ccc(F)cc1)Cc1ccc(F)cc1 [Compound 20] (H-[Nlys][N(4-F-Bzl)Gly][Nlys][N(4-F-Bzl)Gly][Nlys][N(4-F-Bzl)Gly][Nlys][N(4-F-Bzl)Gly][Nlys][N(4-F-Bzl)Gly]-NH2),> 5,256,–,128,32,64,64,4,–,–,–,8,–

# The next lines start with results.
critical aggregation concentration (CAC) [9] [mg/mL],SMILES,Minimal inhibitory concentration PA^g [1] [µg/mL],"antimicrobial potency against the selected bacterial strains, in words [2]",Minimal inhibitory concentration EC^f [3] [µg/mL],Minimal inhibitory concentration MRSA^c [4] [µg/mL],Minimal inhibitory concentration SA^a [5] [µg/mL],Minimal inhibitory concentration SA^b [6] [µg/mL],Minimal inhibitory concentration MRSE^d [7] [µg/mL],MIC against MRSE ([8]; values match ATCC 51625) [µg/mL],fold increase of activity against S. aureus ([5]; versus non-halogenated control of same length) [fold],"fold increase of activity against MRSE ([8]; versus non-halogenated control 1, values match ATCC 51625) [fold]",Minimal inhibitory concentration MRSE^e [8] [µg/mL],"fold increase of activity against MRSE ([7]; versus non-halogenated control of same length, values match ET-024) [fold]"
> 5,NCCCCNCC(=O)N(CC(=O)N(CCCCN)CC(=O)N(CC(=O)N(CCCCN)CC(=O)N(CC(=O)N(CCCCN)CC(=O)N(CC(=O)N(CCCCN)CC(=O)N(CC(N)=O)Cc1ccc(Cl)cc1)Cc1ccc(Cl)cc1)Cc1ccc(Cl)cc1)Cc1ccc(Cl)cc1)Cc1ccc(Cl)cc1 [Compound 21] (H-[Nlys][Gly(Nα-4-Cl-benzyl)][Nlys][Gly(Nα-4-Cl-benzyl)][Nlys][Gly(Nα-4-Cl-benzyl)][Nlys][Gly(Nα-4-Cl-benzyl)][Nlys][Gly(Nα-4-Cl-benzyl)]-NH2),> 512,–,64,2,2,2,1,–,–,–,2,–
> 5,NCCCCNCC(=O)N(CC(=O)N(CCCCN)CC(=O)N(CC(=O)N(CCCCN)CC(=O)N(CC(=O)N(CCCCN)CC(=O)N(CC(=O)N(CCCCN)CC(=O)N(CC(N)=O)Cc1ccc(F)cc1)Cc1ccccc1)Cc1ccc(F)cc1)Cc1ccccc1)Cc1ccc(F)cc1 [Compound 24] (H-[Nlys][N(4-F-Bzl)Gly][Nlys][Nphe][Nlys][N(4-F-Bzl)Gly][Nlys][Nphe][Nlys][N(4-F-Bzl)Gly]-NH2),512,–,256,256,512,512,4,–,–,–,8,–
> 5,NCCCCNCC(=O)N(CC(=O)N(CCCCN)CC(=O)N(CC(=O)N(CCCCN)CC(=O)N(CC(=O)N(CCCCN)CC(=O)N(CC(=O)N(CCCCN)CC(=O)N(CC(N)=O)Cc1ccc(Cl)cc1)Cc1ccccc1)Cc1ccc(Cl)cc1)Cc1ccccc1)Cc1ccc(Cl)cc1 [Compound 25] (H-[Nlys][Gly(Nα-4-Cl-benzyl)][Nlys][Nphe][Nlys][Gly(Nα-4-Cl-benzyl)][Nlys][Nphe][Nlys][Gly(Nα-4-Cl-benzyl)]-NH2),512,–,256,16,8,8,2,–,–,–,1,–
> 5,NCCCCNCC(=O)N(CC(=O)N(CCCCN)CC(=O)N(CC(=O)N(CCCCN)CC(=O)N(CC(=O)N(CCCCN)CC(=O)N(CC(=O)N(CCCCN)CC(=O)N(CC(N)=O)Cc1ccc(I)cc1)Cc1ccccc1)Cc1ccc(I)cc1)Cc1ccccc1)Cc1ccc(I)cc1 [Compound 27] (H-[Nlys][NBzl(4-I)Gly][Nlys][Nphe][Nlys][NBzl(4-I)Gly][Nlys][Nphe][Nlys][NBzl(4-I)Gly]-NH2),> 512,–,128,4,4,4,2,–,–,–,1,–
